Patent publication US4758574A, “2-phenylimidazio (4,5-c) pyridines” (Eli Lilly and Company, priority 1986, dated 1988)
Counter-ions that a name gives are not always drawn. Like-named read-outs stand apart in the source and are kept apart here.

Tests used:
Cat Papillary Muscles = test: Positive Inotropic Activity in Isolated Cat Papillary Muscles; format: cell-based; settings: Felis catus, control = 100 percent, read-out: Contractility of Papillary Muscle (peak response); for activity at 100 µM: Drug Concentration 10^-4 M; for activity at 10 µM: Drug Concentration 10^-5 M
Procedure: Positive Inotropic Activity in Isolated Cat Papillary Muscles […] A platinum hook secured one end of the muscle to an electrode mounted in the bottom of the bath, and a silk thread attached the tendon to a Statham isometric transducer. The baths contained Krebs-Henseleit solution (36° C., bubbled with 95 percent oxygen--5 percent carbon dioxide) of the following millimolar composition: NaCl, 118; KCl, 4.5; CaCl2, 2.5; KH2 PO4, 1.1; MgSO4, 1.2; NaHCO3, 25; and glucose, 11. A base-line tension of 1.5 g. was applied to each muscle. Square-wave pulses (5.0 msec. in duration, three times threshold voltage) delivered through the hook electrode and a second electrode positioned near the top of the muscle evoked 12 contractions/minute, which were recorded on a Grass polygraph. After the muscles had equilibrated for 60 minutes, the recorder gain was adjusted so that the pen deflected 10 mm. The drug was introduced in a solution of normal saline in an amount to bring the final concentration of the drug to 10^-5 or 10^-4 molar. Increases in contractility were tabulated as millimeters of pen deflection in excess of the baseline value. In each experiment the maximum contractility was measured. Test results are summarized in Table I and are expressed as percent of control (control=100 percent). Values are the average of results from 2 to 8 muscles.

[1] = test system: Ventricular Contractility in the Anesthetized Dog; test: Ventricular Contractility in the Anesthetized Dog; format: in vivo, Mongrel dogs; settings: Canis lupus familiaris, iv, i.v. bolus, read-out: ED50 (dose required to produce a peak increase in contractility of 50%)
Procedure: Experiments in Anesthetized Dogs Mongrel dogs of either sex ranging in weight from 7 to 14 kg. wer used. Anesthesia was induced with sodium pentobarbital (30 mg./kg., i.v.) and maintained with supplemental doses as required. A positive-pressure pump was used to ventilate the dogs through an endotracheal tube (18 strokes/minute, 20 ml./kg. stroke^-1), and a heating pad kept the body temperature at 37°-38° C. Femoral arterial blood pressure was measured through a polyethylene catheter filled with heparin solution (16 units/ml.) and connected to a Statham pressure transducer. A strain-gauge arch sutured to the right ventricle of the heart measured cardiac contractility. Tension on the gauge was adjusted to 50 g. and the gain of the recorder (Beckman dynograph) was set so that 50 g. caused a 10-mm. pen deflection; cardiac contractile tension was measured as millimeters of pen deflection or grams of tension. The drug was administered following a 30-45 minute equilibrium period as an i.v. bolus (2-5 ml.) in a normal saline vehicle. […] The maximum effects on contractility at various dose levels were determined and plotted and the dose required to produce a 50% increase in contractility (ED50) was determined by interpolation.

[2] = test system: SRS-A release, guinea pig lung; test: Inhibition of SRS-A (Slow-Reacting Substance of Anaphylaxis) From Guinea Pig Lung; format: cell-based; settings: Cavia porcellus, sensitized guinea pig lung, ovalbumin antigen, read-out: percent inhibition of SRS-A release
Procedure: Inhibition of SRS-A (Slow-Reacting Substance of Anaphylaxis) From Guinea Pig Lung
Male, Hartley guinea pigs, usually 1-2 weeks old, were sensitized with respect to ovalbumin by intraperitoneal administration of 0.15 ml. hyperimmune serum obtained from guinea pigs actively sensitized against ovalbumin. After 2 days or more, the animals were decapitated, lungs were excised and perfused through the pulmonary artery with Krebs' bicarbonate solution of the following composition in mmoles/liter: KCl, 4.6; CaCl2.2 H2 O, 1.8; KH2 PO4, 1.2; MgSO4.7H2 O, 1.2; NaCl, 118.2; NaHCO3, 24.8; and dextrose, 10.0. Poorly perfused and bloody areas were discarded. Normal lung was cut into 1 mm. cubes with a McIlwain tissue chopper, washed with Krebs' solution and divided into 400 mg. aliquots. The fragmented tissue was then incubated at 37° C. for 15 minutes in Krebs' solution containing indomethacin to optimize SRS-A release and an appropriate concentration of experimental drug. Antigen (ovalbumin) was then added to make a final concentration of 1×10^-5 g./ml. Fifteen minutes later, the incubation medium was decanted and centrifuged at 3,000×g at 4° C. for 5 minutes. […] Release of SRS-A in the presence of the experimental drug was compared to a control sample and the results expressed as percent inhibition of SRS-A release.

| SMILES | activity at 100 µM (Cat Papillary Muscles) [%] | activity at 10 µM (Cat Papillary Muscles) [%] | ED50 ([1]; tested as the hydrochloride salt) [mg/kg] | ED50 [1] [mg/kg] | inhibition at 100 µM ([2]; 1×10^-4 M) [%] | inhibition at 10 µM ([2]; 1×10^-5 M) [%] |
| --- | --- | --- | --- | --- | --- | --- |
| c1ccc(-c2nc3cnccc3[nH]2)cc1 [Example 7, 2-Phenylimidazo[4,5-c]pyridine] | 192 | 107 | 2.5 |  |  |  |
| COc1ccc(-c2nc3cnccc3[nH]2)c(OC)c1 [Example 8, 2-(2,4-Dimethoxyphenyl)imidazo[4,5-c]pyridine hydrochloride] | 172 | 158 |  | 0.27 | 45.1 | 19.4 |
| CSc1ccc(-c2nc3cnccc3[nH]2)cc1.Cl [Example 9, 2-(4-methylmercaptophenyl)imidazo[4,5-c]pyridine hydrochloride] | 205 | 113 |  | 4 |  |  |
| CCOc1ccc(-c2nc3cnccc3[nH]2)cc1.Cl [Example 13, 2-(4-ethoxyphenyl)imidazo[4,5-c]pyridine hydrochloride] | 157 | 104 |  | 2.5 |  |  |
| COc1ccc(-c2nc3cnccc3[nH]2)cc1.Cl [Example 15, 2-(4-methoxyphenyl)imidazo[4,5-c]pyridine hydrochloride] | 204 | 104 |  | 1.7 |  |  |
| COc1cc(SC)ccc1-c1nc2cnccc2[nH]1.Cl [Example 23, 2-(2-methoxy-4-methylmercaptophenyl)imidazo[4,5-c]pyridine hydrochloride] | 142 | 141 |  | 0.21 |  |  |
| Cc1ccc(-c2nc3cnccc3[nH]2)c(C)c1 [Example 24, 2-(2,4-dimethylphenyl)imidazo[4,5-c]pyridine hydrochloride] | 94 | 87 |  | 1.4 |  |  |
| Cc1ccccc1-c1nc2cnccc2[nH]1 [Example 26, 2-(2-methylphenyl)imidazo[4,5-c]pyridine hydrochloride] | 188 | 106 |  | 2.2 |  |  |
| COc1cc([S+](C)[O-])ccc1-c1nc2cnccc2[nH]1 (centres unmarked) [Example 27, 2-(2-methoxy-4-methylsulfinylphenyl)imidazo[4,5-c]pyridine] | 200 | 245 |  | 0.03 |  |  |
| CCCOc1cc(OC)ccc1-c1nc2cnccc2[nH]1 [Example 29, 2-(2-n-propoxy-4-methoxyphenyl)imidazo[4,5-c]pyridine] | 335 | 134 |  | 1.3 |  |  |
| COc1ccc(-c2nc3cnccc3[nH]2)c(OCCSC)c1 [Example 39, 2-[2-(β-methylmercaptoethoxy)-4-methoxyphenyl]imidazo[4,5-c]pyridine] | 140 | 118 |  | 1.1 |  |  |
| CCSCCOc1cc(OC)ccc1-c1nc2cnccc2[nH]1.Cl [Example 45, 2-[2-(β-ethylmercaptoethoxy)-4-methoxyphenyl]imidazo[4,5-c]pyridine h ydrochloride] | 125 | 122 |  | 1 |  |  |
| Clc1ccc(-c2nc3cnccc3[nH]2)c(Cl)c1 [Example 47, 2-(2,4-dichlorophenyl)imidazo[4,5-c]pyridine] | 157 | 105 |  | 0.67 |  |  |
| COc1cc(S(C)(=O)=O)ccc1-c1nc2cnccc2[nH]1 [Example 50, 2-(2-methoxy-4-methylsulfonylphenyl)imidazo[4,5-c]pyridine] | 221 | 176 |  | 0.02 |  |  |
| COc1ccc(-c2nc3cnccc3[nH]2)c(OCC[S+](C)[O-])c1 (stereo not drawn) [Example 52, 2-[2-(β-methylsulfinylethoxy)-4-methoxyphenyl]imidazo[4,5-c]pyridine] | 185 | 122 |  | 5.2 |  |  |
| CCCOc1cc([S+](C)[O-])ccc1-c1nc2cnccc2[nH]1 (centres unmarked) [Example 54, 2-(2-n-propoxy-4-methylsulfinylphenyl)imidazo[4,5-c]pyridine] | 159 | 122 |  | 1 |  |  |
| COc1ccc(-c2nc3cnccc3[nH]2)cc1OC.Cl [Example 56, 2-(3,4-dimethoxyphenyl)imidazo[4,5-c]pyridine hydrochloride] | 252 | 163 |  | 0.38 |  |  |
| COc1cc(C(F)(F)F)ccc1-c1nc2cnccc2[nH]1.Cl [Example 59, 2-(2-Methoxy-4-trifluoromethylphenyl)imidazo[4,5-c]pyridine hydrochloride] | 134 | 139 |  | 0.005 |  |  |
| COc1cc([N+](=O)[O-])ccc1-c1nc2cnccc2[nH]1 [Example 60, 2-(2-Methoxy-4-nitrophenyl)imidazo[4,5-c]pyridine] | 145 | 142 |  | 0.015 |  |  |
